Data: US20230227466A1, “SUBSTITUTED THIENOPYRIMIDINES THAT INTERACT WITH THE RAS SUPERFAMILY FOR THE TREATMENT OF CANCERS, INFLAMMATORY DISEASES, RASOPATHIES, AND FIBROTIC DISEASE” (SHY Therapeutics, LLC, priority 2020, published 2023)
Read-outs that look alike come from different tables or passages of the source.

Tests used:
[1] = test system: Akt phosphorylation in Panc-1 cells; test: Western AKT cell-based phosphorylation assay; design: species or system human; conditions: at 10 μM, values in brackets < > are activation %, not inhibition
Summary of the method: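 Panc-1 cells starved overnight in 0.5% FBS, exposed to compound at 10 μM (0.3% DMSO) for 6 h at 37° C, then stimulated with 1.5 ng/ml EGF for 15 min. Lysates probed by western blot with anti-phospho-Akt (Ser473), equal protein loading checked by Ponceau S.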

[2] = target: T1, KRas G12C mutant (Homo sapiens, UniProt P01116, G12C); test: Ras GTP binding domain inhibition assay (labeled-GTP competition, cell-free)
T1 construct: made in house
Summary of the method: (§1)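 Immobilized His-tagged protein (Ni plate, 10-30 μg/mL, overnight 4° C); compound 20 μM or dilution series, 1% DMSO, 3 h RT, ±Sos 556-1049 last hour; Cy3/Cy5-GTP 100 nM, 45 min RT; 3× wash; bound fluorescence read.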

[3] = target: T2, KRas Q61H mutant (Homo sapiens, UniProt P01116, Q61H); test: as above
T2 construct: made in house
Summary of the method: as §1

[4] = target: T3, KRas G12D mutant (Homo sapiens, UniProt P01116, G12D); test: as above
T3 construct: made in house
Summary of the method: as §1

[5] = test system: ERK1/2 phosphorylation in Panc-1 cells; test: Western ERK1/2 cell-based phosphorylation assay; design: species or system human; conditions: at 10 μM, values in brackets < > are activation %, not inhibition
Summary of the method: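 Panc-1 cells starved overnight in 0.5% FBS, then exposed 6 h at 37 °C to compound at 10 μM final (0.3% DMSO) or serial dilutions for IC50. Stimulation with 1.5 ng/ml EGF for 15 min; phospho-ERK1/2 (Thr202/Tyr204) read by western blot on equal protein loads.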

[6] = target: KRas wild type (Homo sapiens, UniProt P01116); test: Ras GTP binding domain inhibition assay (labeled-GTP competition, cell-free); design: made in house
Summary of the method: as §1

[7] = with SOS, read-out: KRas G12C mutant + SOS: % inh.
[8] = without SOS, read-out: KRas G12C mutant: % inh.
[9] = with SOS, read-out: KRas Q61H mutant + SOS: % inh.
[10] = without SOS, read-out: KRas Q61H mutant: % inh.
[11] = with SOS, read-out: KRas G12D mutant + SOS: % inh.
[12] = without SOS, read-out: KRas G12D mutant: % inh.
[13] = with SOS, read-out: KRas wild type + SOS: % inh.
[14] = without SOS, read-out: KRas wild type: % inh.

Row | Structure (SMILES) | % inh of AKT phosphorylation in PANC-1 [1] | inhibition at 20 µM [2, 7] [%] | inhibition at 20 µM [2, 8] [%] | inhibition at 20 µM [3, 9] [%] | inhibition at 20 µM [3, 10] [%] | IC50 ([3]; with SOS) [µM] | inhibition at 20 µM [4, 11] [%] | inhibition at 20 µM [4, 12] [%] | % inh of ERK1/2 phosphorylation in PANC-1 [5] | inhibition at 20 µM [6, 13] [%] | inhibition at 20 µM [6, 14] [%]
1 | CO[C@H]1CC[C@@H](Nc2nc(-c3nccn3C)nc3sc(-c4cn(C)cn4)c(-c4ccccc4)c23)C1 (racemic) [Example 3, Rac-N-((1R,3S)-3-methoxycyclopentyl)-2-(1-methyl-1H-imidazol-2-yl)-6-(1-methyl-1H-imidazol-4-yl)-5-phenylthieno[2,3-d]pyrimidin-4-amine] | 0 (0% inhibition) | 76 to 100 | 76 to 100 | 76 to 100 | 76 to 100 | 5 to 10 | 76 to 100 | 76 to 100 | A (1-25% inhibition) | 76 to 100 | 51 to 75
2 | COc1ccn2c(-c3nc(O)c4scc(-c5ccccn5)c4n3)ncc2c1 [Compound 85, 2-(7-Methoxyimidazo[1,5-a]pyridin-3-yl)-7-(pyridin-2-yl)thieno[3,2-d]pyrimidin-4-ol] | 0 (0% inhibition) | 1 to 25 | 26 to 50 | 26 to 50 | 51 to 75 | – | 26 to 50 | 51 to 75 | 0 (0% inhibition) | 1 to 25 | 51 to 75
3 | COc1ccc2cnc(-c3nc(O)c4scc(-c5ccccn5)c4n3)n2c1 [Compound 86, 2-(6-Methoxyimidazo[1,5-a]pyridin-3-yl)-7-(pyridin-2-yl)thieno[3,2-d]pyrimidin-4-ol] | B (26-50% inhibition) | 26 to 50 | 26 to 50 | 51 to 75 | 26 to 50 | – | 51 to 75 | 51 to 75 | 0 (0% inhibition) | 26 to 50 | 51 to 75
4 | COCCn1c(-c2nc(O)c3scc(-c4ccccn4)c3n2)nc2ccccc21 [Compound 87, 2-(1-(2-Methoxyethyl)-1H-benzo[d]imidazol-2-yl)-7-(pyridin-2-yl)thieno[3,2-d]pyrimidin-4-ol] | <A> | 1 to 25 | 1 to 25 | 26 to 50 | 1 to 25 | – | 26 to 50 | 51 to 75 | A (1-25% inhibition) | 1 to 25 | 26 to 50
5 | Oc1nc(-c2ccncn2)nc2c(-c3ccccn3)csc12 [Compound 88, 7-(Pyridin-2-yl)-2-(pyrimidin-4-yl)thieno[3,2-d]pyrimidin-4-ol] | <B> | 26 to 50 | 1 to 25 | 26 to 50 | 26 to 50 | – | 26 to 50 | 51 to 75 | <B> | 1 to 25 | 26 to 50
6 | Oc1nc(-c2cccnc2)nc2c(-c3ccccn3)csc12 [Compound 89, 7-(Pyridin-2-yl)-2-(pyridin-3-yl)thieno[3,2-d]pyrimidin-4-ol] | 0 (0% inhibition) | 0 | 0 | 1 to 25 | 1 to 25 | – | 0 | 0 | A (1-25% inhibition) | 0 | 0
7 | Cn1ccc(-c2nc(O)c3scc(-c4ccccn4)c3n2)n1 [Compound 90, 2-(1-Methyl-1H-pyrazol-3-yl)-7-(pyridin-2-yl)thieno[3,2-d]pyrimidin-4-ol] | 0 (0% inhibition) | 1 to 25 | 1 to 25 | 26 to 50 | 1 to 25 | – | 1 to 25 | 26 to 50 | 0 (0% inhibition) | 0 | 0
8 | Cn1nccc1-c1nc(O)c2scc(-c3ccccn3)c2n1 [Compound 91, 2-(1-Methyl-1H-pyrazol-5-yl)-7-(pyridin-2-yl)thieno[3,2-d]pyrimidin-4-ol] | 0 (0% inhibition) | 1 to 25 | 0 | 26 to 50 | 1 to 25 | – | 1 to 25 | 1 to 25 | 0 (0% inhibition) | 0 | 0
9 | Cc1cnc(-c2nc(O)c3scc(-c4ccccn4)c3n2)s1 [Compound 92, 2-(5-Methylthiazol-2-yl)-7-(pyridin-2-yl)thieno[3,2-d]pyrimidin-4-ol] | 0 (0% inhibition) | 51 to 75 | 51 to 75 | 51 to 75 | 76 to 100 | – | 51 to 75 | 76 to 100 | 0 (0% inhibition) | 51 to 75 | 51 to 75
10 | COCCn1ccnc1-c1nc(O)c2scc(-c3ccncc3)c2n1 [Compound 94, 2-(1-(2-Methoxyethyl)-1H-imidazol-2-yl)-7-(pyridin-4-yl)thieno[3,2-d]pyrimidin-4-ol] | 0 (0% inhibition) | 51 to 75 | 51 to 75 | 51 to 75 | 51 to 75 | – | 76 to 100 | 76 to 100 | 0 (0% inhibition) | 51 to 75 | 51 to 75
11 | COc1nc(-c2nccn2C)nc2c(-c3ncccc3F)csc12 [Compound 95, 7-(3-Fluoropyridin-2-yl)-4-methoxy-2-(1-methyl-1H-imidazol-2-yl)thieno[3,2-d]pyrimidine] | 0 (0% inhibition) | 76 to 100 | 76 to 100 | 76 to 100 | 76 to 100 | – | 76 to 100 | 76 to 100 | 0 (0% inhibition) | 76 to 100 | 76 to 100
12 | CO[C@H]1C[C@@H](Nc2nc(-c3nccn3C)nc3sc(-c4cn(C)cn4)c(-c4ccccc4)c23)C1 [Example 2, N-((1s,3s)-3-methoxycyclobutyl)-2-(1-methyl-1H-imidazol-2-yl)-6-(1-methyl-1H-imidazol-4-yl)-5-phenylthieno[2,3-d]pyrimidin-4-amine] | 0 (0% inhibition) | 76 to 100 | 76 to 100 | 76 to 100 | 51 to 75 | 1 to 4.99 | 51 to 75 | 51 to 75 | C (51-75% inhibition) | 76 to 100 | 76 to 100
